Measurements: patent US10179174B2, “Method for inducing an immune response and formulations thereof” (priority 2011, dated 2019)

Assays:
CD4 = conditions: literature; cited from earlier work
HSV-1 virus = conditions: Peptide J alone; Taylor et al.; cited from earlier work
BM cells (iDCs) = experiment: Flow cytometry phenotyping of BM cells (iDCs) incubated with LEAPS heteroconjugates or LPS; assay type: cell-based, BALB/c mice; conditions: 14.5 micromoles per well (about 10^6 cells), incubation 24, 48 or 72 hours

## DGQEEKAGVVSTGLI (H-DGQEEKAGVVSTGLI-NH2) [CEL-1000, ICBL peptide derived from the β-chain of MHC II]
CD4
  binding to CD4: bind to CD4

## DLLKNGERIEKVE [J Peptide, ICBL derived from amino acids 38-50 of the β-2-microglobulin chain of the MHC I molecule]
HSV-1 virus
  protection against infection: does not induce protection against infection

## lipopolysaccharide [LPS]
BM cells (iDCs)
  upregulation for CD80, CD86 and MHC II compared to untreated cells: significant upregulation
